The values below come from patent publication US11034700B2, “Substituted pyrrolidine compound and use thereof” (Takeda Pharmaceutical Company Limited, priority 2017, dated 2021).

The test addresses T1, human OX2 receptor (Homo sapiens, UniProt O43614).
T1 construct: expressed in transfected cells
T1 sequence (O43614 1-444): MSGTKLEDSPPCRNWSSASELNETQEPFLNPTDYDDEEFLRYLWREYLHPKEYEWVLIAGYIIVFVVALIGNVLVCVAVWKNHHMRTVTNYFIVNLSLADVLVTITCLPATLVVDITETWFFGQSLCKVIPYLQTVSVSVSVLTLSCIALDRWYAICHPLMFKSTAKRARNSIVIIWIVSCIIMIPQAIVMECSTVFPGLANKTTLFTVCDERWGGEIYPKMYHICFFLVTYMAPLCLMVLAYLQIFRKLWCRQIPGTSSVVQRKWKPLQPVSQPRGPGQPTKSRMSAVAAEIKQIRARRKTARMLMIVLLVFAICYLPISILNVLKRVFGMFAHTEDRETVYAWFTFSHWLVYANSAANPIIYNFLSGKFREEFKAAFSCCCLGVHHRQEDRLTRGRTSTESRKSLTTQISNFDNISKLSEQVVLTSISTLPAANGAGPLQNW
In words: Measurement of orexin type 2 receptor agonist activity (Fluo-4 calcium fluorescence, FDSS). The settings on record: compound at 3 μM; CHO cells forcibly expressing human OX2 receptor; DMSO = 0%, orexin A (human) 10 nM = 100%. The format is cell-based. From the text: Experimental Example 1: Obtainment of Cell Stably Expressing Human Orexin Type 2 Receptor (hOX2R)
To obtain a cell clone stably expressing human orexin type 2 receptor, human orexin type 2 receptor cDNA was inserted into pcDNA3.1(+) plasmid vector (Invitrogen), and a plasmid DNA for expression of human orexin type 2 receptor (pcDNA3.1(+)/hOX2R) was cloned. The plasmid DNA was introduced into CHO-dhfr cell by an electroporation method, and human orexin type 2 receptor expressing clone cells were obtained by limiting dilution method by using G418 drug resistance as a selection marker.
Experimental Example 2: Measurement of Orexin Type 2 Receptor Agonist Activity
CHO cells forcibly expressing human OX2 receptor were seeded in each well of 384 well black transparent bottom plate (BD Falcon) at 7,500 cells/well, and cultured for one day in a 5% CO2 incubator at 37° C. After removal of the medium in the cell plate, assay buffer A containing a calcium indicator (HESS (Life Technologies), 20 mM HEPES (Life Technologies), 0.1% BSA (Wako Pure Chemical Industries, Ltd.), 2.5 μg/mL Fluo-4 AM (DOJINDO Chemical), 0.08% Pluronic F127 (DOJINDO Chemical), 1.25 mM probenecid (DOJINDO Chemical)) was added at 30 μL/well. The plate was stood for 30 min in a 5% CO2 incubator at 37° C., and further stood at room temperature for 30 min. A test compound prepared by diluting with assay buffer B (HESS, 20 mM HEPES, 0.1% BSA) was added at 10 μL/well, and the fluorescence value was measured by FDSSμCELL (Hamamatsu Photonics K.K.) every one sec for 1 min, and thereafter every two sec for 1 min 40 sec. The activity (%) of the test compound was calculated assuming that variation in the fluorescence value when DMSO was added instead of the test compound was 0% […], and variation in the fluorescence value when orexin A (human) (PEPTIDE INSTITUTE, INC.) was added at the final concentration of 10 nM was 100% […]. The activity of each compound at the concentration of 3 μM was shown below.

For the molecule `COc1ccc(-c2cccc(C(=O)N(C)C)c2)cc1S(=O)(=O)Nc1cccc(O[C@H]2CCN(C(=O)C3(c4ccccc4)CC3)C2)c1` [Example 16, 4′-methoxy-N,N-dimethyl-3′-((3-(((3S)-1-((1-phenylcyclopropyl)carbonyl)pyrrolidin-3-yl)oxy)phenyl)sulfamoyl)biphenyl-3-carboxamide], the “OX2R agonist activity (3 μM, %)” value was determined as 99%.

For the molecule `COc1ccccc1S(=O)(=O)Nc1cccc(O[C@@H]2CN(C(=O)c3c(C)cccc3OC)C[C@H]2OC)c1` [Example 97, 2-methoxy-N-(3-(((3R,4R)-4-methoxy-1-(2-methoxy-6-methylbenzoyl)pyrrolidin-3-yl)oxy)phenyl)benzenesulfonamide], the “OX2R agonist activity (3 μM, %)” value came to 93%.

With `COc1ccc(-c2cccc(C(=O)N(C)C)c2)cc1S(=O)(=O)Nc1cccc(O[C@H]2CCN(C(=O)c3c(C)cccc3C)C2)c1` [Example 10, 3′-((3-(((3S)-1-(2,6-dimethylbenzoyl)pyrrolidin-3-yl)oxy)phenyl)sulfamoyl)-4′-methoxy-N,N-dimethylbiphenyl-3-carboxamide], the “OX2R agonist activity (3 μM, %)” value is 106%.

Consider `COc1ccccc1S(=O)(=O)Nc1ccc(F)c(O[C@@H]2CN(C(=O)c3cc(C)ccc3C)C[C@H]2OC)c1` (relative stereo) [Example 86, trans-N-(3-((1-(2,5-dimethylbenzoyl)-4-methoxypyrrolidin-3-yl)oxy)-4-fluorophenyl)-2-methoxybenzenesulfonamide], for which the “OX2R agonist activity (3 μM, %)” value came to 80%.

Regarding `COc1ccc(N2CCOCC2)cc1S(=O)(=O)Nc1cccc(O[C@H]2CCN(C(=O)c3c(C)cccc3C)C2)c1` [Example 31, N-(3-(((3S)-1-(2,6-dimethylbenzoyl)pyrrolidin-3-yl)oxy)phenyl)-2-methoxy-5-(morpholin-4-yl)benzenesulfonamide], the “OX2R agonist activity (3 μM, %)” value is listed as 75%.

As for `CO[C@@H]1CN(C(=O)c2cc(C)ccc2C)C[C@H]1Oc1cccc(NS(=O)(=O)C2CCOCC2)c1` [Example 81, N-(3-(((3R,4R)-1-(2,5-dimethylbenzoyl)-4-methoxypyrrolidin-3-yl)oxy)phenyl)tetrahydro-2H-pyran-4-sulfonamide], the “OX2R agonist activity (3 μM, %)” value came out at 92%.

On to `Cc1cccc(C)c1C(=O)N1CC[C@H](Oc2cccc(NS(=O)(=O)c3ccccc3Cl)c2)C1` [Example 37, 2-chloro-N-(3-(((3S)-1-(2,6-dimethylbenzoyl)pyrrolidin-3-yl)oxy)phenyl)benzenesulfonamide], for which the “OX2R agonist activity (3 μM, %)” value is 35%.

Take `COc1ccccc1S(=O)(=O)Nc1cccc(O[C@@H]2CN(C(=O)c3cc(C)ccc3C)C[C@H]2F)c1` (relative stereo) [Example 107, trans-N-(3-((1-(2,5-dimethylbenzoyl)-4-fluoropyrrolidin-3-yl)oxy)phenyl)-2-methoxybenzenesulfonamide]: the “OX2R agonist activity (3 μM, %)” value is reported as 77%.

As to `Cc1cccc(C)c1C(=O)N1CC[C@H](Oc2cccc(NS(=O)(=O)c3sccc3Cl)c2)C1` [Example 38, 3-chloro-N-(3-(((3S)-1-(2,6-dimethylbenzoyl)pyrrolidin-3-yl)oxy)phenyl)thiophene-2-sulfonamide], the “OX2R agonist activity (3 μM, %)” value is reported as 44%.

For the molecule `COc1ccccc1S(=O)(=O)Nc1cc(F)cc(O[C@@H]2CN(C(=O)c3cc(C)ccc3C)C[C@H]2OC)c1` (relative stereo) [Example 100, trans-N-(3-((1-(2,5-dimethylbenzoyl)-4-methoxypyrrolidin-3-yl)oxy)-5-fluorophenyl)-2-methoxybenzenesulfonamide], the “OX2R agonist activity (3 μM, %)” value is on record as 102%.

Consider `COc1ccc(-c2cccc(C(=O)N(C)C)c2)cc1S(=O)(=O)Nc1cccc(O[C@H]2CCN(C(=O)c3cccc4c3OCC4)C2)c1` [Example 28, 3′-((3-(((3S)-1-(2,3-dihydro-1-benzofuran-7-ylcarbonyl)pyrrolidin-3-yl)oxy)phenyl)sulfamoyl)-4′-methoxy-N,N-dimethylbiphenyl-3-carboxamide], for which the “OX2R agonist activity (3 μM, %)” value was 101%.

For `COc1ccc(-c2cccc(C(=O)N(C)C)c2)cc1S(=O)(=O)Nc1cccc(O[C@@H]2CN(C(=O)c3cc(C)ccc3C)C[C@@H]2OC)c1` (relative stereo) [Example 59, cis-3′-((3-((1-(2,5-dimethylbenzoyl)-4-methoxypyrrolidin-3-yl)oxy)phenyl)sulfamoyl)-4′-methoxy-N,N-dimethylbiphenyl-3-carboxamide], the “OX2R agonist activity (3 μM, %)” value was 103%.

With `COc1ccccc1S(=O)(=O)Nc1ccnc(O[C@@H]2CN(C(=O)c3cc(C)ccc3C)C[C@H]2OC)c1` (relative stereo) [Example 101, trans-N-(2-((1-(2,5-dimethylbenzoyl)-4-methoxypyrrolidin-3-yl)oxy)pyridin-4-yl)-2-methoxybenzenesulfonamide], the “OX2R agonist activity (3 μM, %)” value was found to be 95%.

Turning to `COc1ccccc1S(=O)(=O)Nc1cccc(O[C@@H]2CN(C(=O)c3cc(C)ccc3C)C[C@H]2C#N)c1` (relative stereo) [Example 126, trans-N-(3-((4-cyano-1-(2,5-dimethylbenzoyl)pyrrolidin-3-yl)oxy)phenyl)-2-methoxybenzenesulfonamide], the “OX2R agonist activity (3 μM, %)” value is 67%.

As for `CC[C@@H]1CN(C(=O)c2cc(C)ccc2C)C[C@H]1Oc1cccc(NS(=O)(=O)c2ccccc2OC)c1` (relative stereo) [Example 93, trans-N-(3-((1-(2,5-dimethylbenzoyl)-4-ethylpyrrolidin-3-yl)oxy)phenyl)-2-methoxybenzenesulfonamide], the “OX2R agonist activity (3 μM, %)” value was 80%.

Regarding `COc1ccccc1S(=O)(=O)Nc1cccc(O[C@@H]2CN(C(=O)c3c(C)cccc3F)C[C@H]2OC)c1` [Example 96, N-(3-(((3R,4R)-1-(2-fluoro-6-methylbenzoyl)-4-methoxypyrrolidin-3-yl)oxy)phenyl)-2-methoxybenzenesulfonamide], the “OX2R agonist activity (3 μM, %)” value came out at 80%.

Regarding `COc1ccccc1S(=O)(=O)Nc1cccc(O[C@@H]2CN(C(=O)c3cc(C)ccc3C)C[C@H]2OC)c1C` (relative stereo) [Example 103, trans-N-(3-((1-(2,5-dimethylbenzoyl)-4-methoxypyrrolidin-3-yl)oxy)-2-methylphenyl)-2-methoxybenzenesulfonamide], the “OX2R agonist activity (3 μM, %)” value was 80%.
